{"source": "patent US20210244720A1", "about": "“Therapeutic Tyrosine Kinase Inhibitors for Relapsing Multiple Sclerosis (RMS)” (Genzyme Corporation, priority 2020, published 2021)", "tested_on": "participants with relapsing multiple sclerosis (RMS)", "experiment": "Phase 2b study in RMS: safety and tolerability (adverse events, laboratory tests, ECG, vital signs)", "key": {"[1]": {"settings": "5 mg, 12 weeks treatment, n = 33"}, "[2]": {"settings": "5 mg, BTK inhibitor treatment period, safety population, N = 32"}, "[3]": {"settings": "5 mg, BTK inhibitor treatment period, safety population, N = 33"}, "[4]": {"settings": "15 mg, 12 weeks treatment, n = 32"}, "[5]": {"settings": "15 mg, BTK inhibitor treatment period, safety population, N = 32"}, "[6]": {"settings": "30 mg, 12 weeks treatment, n = 33"}, "[7]": {"settings": "30 mg, BTK inhibitor treatment period, safety population, N = 33"}, "[8]": {"settings": "60 mg, 12 weeks treatment, n = 32"}}}
{"smiles": "C=CC(=O)N1CCC[C@@H](n2c(=O)n(-c3ccc(Oc4ccccc4)cc3)c3c(N)nccc32)C1", "note": "[the BTK inhibitor, (R)-1-(1-acryloylpiperidin-3-yl)-4-amino-3-(4-phenoxyphenyl)-1H-imidazo[4,5-c]pyridin-2(3H)-one]", "values": [{"measurement": "Accidental overdose, patients n (%)", "setting": "[1]", "value": 0}, {"measurement": "Alanine aminotransferase increased, patients n (%)", "setting": "[1]", "value": "1 (3%)"}, {"measurement": "Alopecia, patients n (%)", "setting": "[1]", "value": "1 (3%)"}, {"measurement": "Back pain, patients n (%)", "setting": "[1]", "value": "1 (3%)"}, {"measurement": "Gastroenteritis, patients n (%)", "setting": "[1]", "value": "1 (3%)"}, {"measurement": "Headache, patients n (%)", "setting": "[1]", "value": "1 (3%)"}, {"measurement": "Muscle spasticity, patients n (%)", "setting": "[1]", "value": 0}, {"measurement": "Nasopharyngitis, patients n (%)", "setting": "[1]", "value": "1 (3%)"}, {"measurement": "Oropharyngeal pain, patients n (%)", "setting": "[1]", "value": "1 (3%)"}, {"measurement": "Peripheral edema, patients n (%)", "setting": "[1]", "value": "2 (6%)"}, {"measurement": "Respiratory tract infection, patients n (%)", "setting": "[1]", "value": 0}, {"measurement": "Upper respiratory tract infection, patients n (%)", "setting": "[1]", "value": "2 (6%)"}, {"measurement": "Participants with any TEAE, %", "setting": "[2]", "value": "(50.0) %"}, {"measurement": "Participants with any treatment-related TEAE, %", "setting": "[2]", "value": "(18.8) %"}, {"measurement": "Participants with treatment emergent SAE(s), Any class, n(%)", "setting": "[2]", "value": 0}, {"measurement": "Participants with treatment emergent SAE(s), Multiple sclerosis relapse, n(%)", "setting": "[2]", "value": 0}, {"measurement": "Participants with treatment emergent SAE(s), NERVOUS SYSTEM DISORDERS, n(%)", "setting": "[2]", "value": 0}, {"measurement": "AESI, Alanice aminotransferase increased, n (%)", "setting": "[3]", "value": 0}, {"measurement": "AESI, Investigations, n (%)", "setting": "[3]", "value": 0}, {"measurement": "Any AESI, n (%)", "setting": "[3]", "value": 0}, {"measurement": "AESI, Alanice aminotransferase increased, n (%)", "setting": "5 mg, Weeks 1 to 4, N = 16", "value": 0}, {"measurement": "AESI, Investigations, n (%)", "setting": "5 mg, Weeks 1 to 4, N = 16", "value": 0}, {"measurement": "Any AESI, n (%)", "setting": "5 mg, Weeks 1 to 4, N = 16", "value": 0}, {"measurement": "Participants with any TEAE, %", "setting": "5 mg, Weeks 1 to 4, N = 32", "value": "(25.0) %"}, {"measurement": "Participants with any treatment-related TEAE, %", "setting": "5 mg, Weeks 1 to 4, N = 32", "value": "(12.5) %"}, {"measurement": "Any AE, %", "setting": "5 mg, Weeks 1 to 4, n = 16", "value": "(31.3%)"}, {"measurement": "Any treatment-related AE, %", "setting": "5 mg, Weeks 1 to 4, n = 16", "value": "(12.5%)"}, {"measurement": "Any AE, %", "setting": "5 mg, Weeks 1 to 12, n = 33", "value": "(57.6) %"}, {"measurement": "Any treatment-related AE, %", "setting": "5 mg, Weeks 1 to 12, n = 33", "value": "(15.2) %"}, {"measurement": "Accidental overdose, patients n (%)", "setting": "[4]", "value": 0}, {"measurement": "Alanine aminotransferase increased, patients n (%)", "setting": "[4]", "value": 0}, {"measurement": "Alopecia, patients n (%)", "setting": "[4]", "value": "1 (3%)"}, {"measurement": "Back pain, patients n (%)", "setting": "[4]", "value": "1 (3%)"}, {"measurement": "Gastroenteritis, patients n (%)", "setting": "[4]", "value": 0}, {"measurement": "Headache, patients n (%)", "setting": "[4]", "value": "3 (9%)"}, {"measurement": "Muscle spasticity, patients n (%)", "setting": "[4]", "value": 0}, {"measurement": "Nasopharyngitis, patients n (%)", "setting": "[4]", "value": 0}, {"measurement": "Oropharyngeal pain, patients n (%)", "setting": "[4]", "value": 0}, {"measurement": "Peripheral edema, patients n (%)", "setting": "[4]", "value": 0}, {"measurement": "Respiratory tract infection, patients n (%)", "setting": "[4]", "value": "1 (3%)"}, {"measurement": "Upper respiratory tract infection, patients n (%)", "setting": "[4]", "value": "2 (6%)"}, {"measurement": "AESI, Alanice aminotransferase increased, n (%)", "setting": "[5]", "value": 0}, {"measurement": "AESI, Investigations, n (%)", "setting": "[5]", "value": 0}, {"measurement": "Any AESI, n (%)", "setting": "[5]", "value": 0}, {"measurement": "Participants with any TEAE, %", "setting": "[5]", "value": "(56.3) %"}, {"measurement": "Participants with any treatment-related TEAE, %", "setting": "[5]", "value": "(9.4) %"}, {"measurement": "Participants with treatment emergent SAE(s), Any class, n(%)", "setting": "[5]", "value": 0}, {"measurement": "Participants with treatment emergent SAE(s), Multiple sclerosis relapse, n(%)", "setting": "[5]", "value": 0}, {"measurement": "Participants with treatment emergent SAE(s), NERVOUS SYSTEM DISORDERS, n(%)", "setting": "[5]", "value": 0}, {"measurement": "AESI, Alanice aminotransferase increased, n (%)", "setting": "15 mg, Weeks 1 to 4, N = 16", "value": 0}, {"measurement": "AESI, Investigations, n (%)", "setting": "15 mg, Weeks 1 to 4, N = 16", "value": 0}, {"measurement": "Any AESI, n (%)", "setting": "15 mg, Weeks 1 to 4, N = 16", "value": 0}, {"measurement": "Participants with any TEAE, %", "setting": "15 mg, Weeks 1 to 4, N = 32", "value": "(43.8) %"}, {"measurement": "Participants with any treatment-related TEAE, %", "setting": "15 mg, Weeks 1 to 4, N = 32", "value": "(3.1) %"}, {"measurement": "Any AE, %", "setting": "15 mg, Weeks 1 to 4, n = 16", "value": "(18.9%)"}, {"measurement": "Any AE, %", "setting": "15 mg, Weeks 1 to 12, n = 32", "value": "(53.1) %"}, {"measurement": "Any treatment-related AE, %", "setting": "15 mg, Weeks 1 to 12, n = 32", "value": "(3.1) %"}, {"measurement": "ALT level of the AESI participant", "setting": "30 mg group, Week 8 visit", "value": 105, "unit": "U/L"}, {"measurement": "ALT level of the AESI participant", "setting": "30 mg group, within 4 days after Week 8 visit", "value": 32, "unit": "U/L"}, {"measurement": "AESIs (alanine aminotransferase increased >3×ULN)", "setting": "30 mg treatment period", "value": 1}, {"measurement": "Accidental overdose, patients n (%)", "setting": "[6]", "value": 0}, {"measurement": "Alanine aminotransferase increased, patients n (%)", "setting": "[6]", "value": "1 (3%)"}, {"measurement": "Alopecia, patients n (%)", "setting": "[6]", "value": 0}, {"measurement": "Back pain, patients n (%)", "setting": "[6]", "value": "2 (6%)"}, {"measurement": "Gastroenteritis, patients n (%)", "setting": "[6]", "value": 0}, {"measurement": "Headache, patients n (%)", "setting": "[6]", "value": "1 (3%)"}, {"measurement": "Muscle spasticity, patients n (%)", "setting": "[6]", "value": "1 (3%)"}, {"measurement": "Nasopharyngitis, patients n (%)", "setting": "[6]", "value": "1 (3%)"}, {"measurement": "Oropharyngeal pain, patients n (%)", "setting": "[6]", "value": "1 (3%)"}, {"measurement": "Peripheral edema, patients n (%)", "setting": "[6]", "value": 0}, {"measurement": "Respiratory tract infection, patients n (%)", "setting": "[6]", "value": "1 (3%)"}, {"measurement": "Upper respiratory tract infection, patients n (%)", "setting": "[6]", "value": "1 (3%)"}, {"measurement": "AESI, Alanice aminotransferase increased, n (%)", "setting": "[7]", "value": "1 (3.0)"}, {"measurement": "AESI, Investigations, n (%)", "setting": "[7]", "value": "1 (3.0)"}, {"measurement": "Any AESI, n (%)", "setting": "[7]", "value": "1 (3.0)"}, {"measurement": "Participants with any TEAE, %", "setting": "[7]", "value": "(51.5) %"}, {"measurement": "Participants with any severe TEAE, %", "setting": "[7]", "value": "(3.0) %"}, {"measurement": "Participants with any treatment emergent SAE, %", "setting": "[7]", "value": "(3.0) %"}, {"measurement": "Participants with any treatment-related TEAE, %", "setting": "[7]", "value": "(12.1) %"}, {"measurement": "Participants with treatment emergent SAE(s), Any class, n(%)", "setting": "[7]", "value": "1 (3.0)"}, {"measurement": "Participants with treatment emergent SAE(s), Multiple sclerosis relapse, n(%)", "setting": "[7]", "value": "1 (3.0)"}, {"measurement": "Participants with treatment emergent SAE(s), NERVOUS SYSTEM DISORDERS, n(%)", "setting": "[7]", "value": "1 (3.0)"}, {"measurement": "AESI, Alanice aminotransferase increased, n (%)", "setting": "30 mg, Weeks 1 to 4, N = 16", "value": 0}, {"measurement": "AESI, Investigations, n (%)", "setting": "30 mg, Weeks 1 to 4, N = 16", "value": 0}, {"measurement": "Any AESI, n (%)", "setting": "30 mg, Weeks 1 to 4, N = 16", "value": 0}, {"measurement": "Participants with any TEAE, %", "setting": "30 mg, Weeks 1 to 4, N = 33", "value": "(42.4) %"}, {"measurement": "Participants with any treatment-related TEAE, %", "setting": "30 mg, Weeks 1 to 4, N = 33", "value": "(12.1) %"}, {"measurement": "Any AE, %", "setting": "30 mg, Weeks 1 to 4, n = 16", "value": "(12.5%)"}, {"measurement": "Any AE, %", "setting": "30 mg, Weeks 1 to 12, n = 33", "value": "(54.5) %"}, {"measurement": "Any treatment-related AE, %", "setting": "30 mg, Weeks 1 to 12, n = 33", "value": "(12.1) %"}, {"measurement": "ALT level of the AESI participant", "setting": "60 mg group, Week 4 visit, ULN 34 U/L", "value": 107, "unit": "U/L"}, {"measurement": "ALT level of the AESI participant", "setting": "60 mg group, Week 12", "value": 28, "unit": "U/L"}, {"measurement": "AESIs (alanine aminotransferase increased >3×ULN)", "setting": "60 mg treatment period", "value": 1}, {"measurement": "Accidental overdose, patients %", "setting": "[8]", "value": "(9%)"}, {"measurement": "Accidental overdose, patients n", "setting": "[8]", "value": 3}, {"measurement": "Alanine aminotransferase increased, patients %", "setting": "[8]", "value": "(3%)"}, {"measurement": "Alanine aminotransferase increased, patients n", "setting": "[8]", "value": 1}, {"measurement": "Alopecia, patients %", "setting": "[8]", "value": "(3%)"}, {"measurement": "Alopecia, patients n", "setting": "[8]", "value": 1}, {"measurement": "Back pain, patients n", "setting": "[8]", "value": 0}, {"measurement": "Gastroenteritis, patients %", "setting": "[8]", "value": "(6%)"}, {"measurement": "Gastroenteritis, patients n", "setting": "[8]", "value": 2}, {"measurement": "Headache, patients %", "setting": "[8]", "value": "(13%)"}, {"measurement": "Headache, patients n", "setting": "[8]", "value": 4}, {"measurement": "Muscle spasticity, patients %", "setting": "[8]", "value": "(6%)"}, {"measurement": "Muscle spasticity, patients n", "setting": "[8]", "value": 2}]}
